US20090192327A1, “METHODS AND COMPOSITIONS FOR INHIBITING BIOFILMS” (Sequoia Sciences, Inc., priority 2004, published 2009)
Several values for one entry are separate records, joined by “and”; a condition that tells them apart may be missing. Equal values may be shown once. Read-outs that look alike come from different tables or passages of the source.

How the values were obtained:
Pseudomonas aeruginosa [1] = test: Minimum inhibitory concentration (NCCLS broth microdilution); format: cell-based; conditions: LB media with 0.2% glucose; 35° C. for 20-24 hours
Method: The minimum inhibitory concentrations (MICs) for several of the specific biofilm inhibitors described herein were determined against several targets, including P. aeruginosa, E. coli, and Staphylococcus aureus. The MICs of the biofilm inhibitors were measured using the reference broth microdilution method recommended by the National Committee for Clinical Laboratory Standards (NCCLS). […] In each assay, positive and negative controls were employed, wherein the positive control included an antimicrobial agent with a known potency range that was used to ensure proper assay performance. The negative control, generally, included the solvent in which the test compounds were dissolved. In this example, the wells correlating to the negative controls included ethanol (without any biofilm inhibitors). […] Thus, each well contained a final volume of approximately 200 μl (not including the volume of the concentrated inhibitor). […] After bacterial inoculation and loading of test and control samples, the plate was incubated in an ambient air environment at 35° C. for 20-24 hours. The plate was subsequently rinsed, stained, and analyzed in accordance with the procedures described in Example 1. […] The minimum inhibitory concentrations were calculated as the lowest inhibitor concentration at which biofilm inhibition was observed.

Pseudomonas aeruginosa [2] = test: Microtiter plate biofilm inhibition assay (crystal violet); format: cell-based; conditions: 10 μg/ml; LB media with 0.2% glucose; 24 hours at room temperature; average of three wells
Method: A microtiter plate assay was used to quantitatively measure the effect each tested compound had on the ability of bacteria to form a biofilm. In this example, a concentrated solution of each compound tested was loaded separately into three separate wells of a polystyrene microtiter plate. In addition, each assay included triplicate wells correlating to negative and positive controls. For the positive controls, biofilm inhibitors of known activity were used, whereas no inhibitors were added to wells correlating to negative controls. […] Thus, each well contained a final volume of approximately 200 μl (not including the volume of the concentrated inhibitor). […] The microtiter plates were then placed on a shaker for 24 hours at room temperature. After the 24 hour incubation period, the microtiter plate was removed from the shaker, rinsed, and stained. During the rinsing step, the test compound, media, and bacterial inoculum solution was drained from the plate, approximately 300 μl of 0.1M phosphate buffered saline (PBS) was added to each well, which was subsequently drained from the plate. The rinsing step removed any suspended cells from the assay. 0.1% crystal violet stain was added to each well for approximately 20 minutes. Next, the crystal violet solution was drained from the microtiter plate. The plate was rinsed with PBS as described above four (4) times to remove any excess stain from the plate. Following the PBS rinsing steps, the plate was eluted with 250 μl/well of ethanol, which improved the detection of the stain. The plate was immediately analyzed spectrophotometrically at 540 nm using a microtiter plate reader. The inhibitory effect each compound had on the bacteria's ability to form a biofilm on the surface of each well was determined as follows: The absorbance values observed for each set of three (3) wells correlating with a test compound or control were averaged. The average absorbance value for each test compound was compared to the average absorbance value of the negative control (the positive control was employed to verify proper assay function). In general, biofilm inhibition activity is inversely proportional to absorbance values, whereby, for example, low absorbance values correlate with significant inhibition activity and high absorbance values correlate with small or no inhibition activity. The approximate percent inhibition observed for each compound was calculated by comparing the average absorbance value for each test compound to the average absorbance value for the negative controls. Table 2 summarizes the average percent inhibition observed for the tested compounds listed against biofilms generated by Pseudomonas aeruginosa.

Staphylococcus aureus = test: Minimum inhibitory concentration (NCCLS broth microdilution); format: cell-based; conditions: LB media with 0.2% glucose; 35° C. for 20-24 hours
Method: (§1) The minimum inhibitory concentrations (MICs) for several of the specific biofilm inhibitors described herein were determined against several targets, including P. aeruginosa, E. coli, and Staphylococcus aureus. The MICs of the biofilm inhibitors were measured using the reference broth microdilution method recommended by the National Committee for Clinical Laboratory Standards (NCCLS).
(§2) […]. The negative control, generally, included the solvent in which the test compounds were dissolved. In this example, the wells correlating to the negative controls included ethanol (without any biofilm inhibitors).
(§3) In this example, 150 μl of sterile media was added to each well (LB media with 0.2% glucose), along with appropriate volumes of concentrated solutions of the inhibitors to be tested, followed by 50 μl of bacterial inoculum. Thus, each well contained a final volume of approximately 200 μl (not including the volume of the concentrated inhibitor). […]. The plate was subsequently rinsed, stained, and analyzed in accordance with the procedures described in Example 1.
(§4) Tables 7, 8, and 9 summarize the data observed and, specifically, the MICs calculated for the several compounds referenced therein against P. aeruginosa, E. coli, and S. aureus, respectively. The minimum inhibitory concentrations were calculated as the lowest inhibitor concentration at which biofilm inhibition was observed.

P. aeruginosa = conditions: 10 μg/mL
Method: In general, flow cell analysis begins by inoculating a microorganism into test and control flow cells along with the appropriate growth media (which may vary depending upon the organism involved). The microorganisms are maintained in the flow cells until they have produced biofilms having the desired coverage and thickness. Thereafter, the test flow cells are treated with appropriate concentrations of test inhibitors. […] Such negative controls may be used as reference points when measuring biofilm inhibition activity.
After the appropriate flow cells are treated with the test inhibitors, Live/Dead stain is applied to each flow cell for approximately 45 minutes. Any currently-available Live/Dead stain may be employed in this procedure, such as LIVE BacLight™ Bacterial Gram stain (Molecular Probes, Inc., Eugene, Oreg., USA). The biofilm is subsequently rinsed with sterile media to remove excess stain, and the sample is transferred to a confocal microscope for imaging. The Live/Dead stain differentially stains the bacterial cells with green for Live and red for Dead. In a flow cell environment, it is generally understood that bacteria require the presence of biofilms to propagate. Accordingly, the activity of a biofilm inhibitor may be indirectly measured by comparing the number of live bacterial cells included in a flow cell that contained a test inhibitor to that of a negative control.
The negative control flow cells included the inoculum in LB media with 0.2% glucose without any inhibitors. […] The test and control cells were subsequently stained and analyzed as described above.
In this example, the number of live colony forming units (CFU) detected in the sample flow cells were compared to that of the negative control to indirectly measure biofilm inhibition.

Escherichia coli = test: Minimum inhibitory concentration (NCCLS broth microdilution); format: cell-based; conditions: LB media with 0.2% glucose; 35° C. for 20-24 hours
Method: as §1, §2, §3, §4

[3] = system: Pseudomonas aeruginosa strain PAO 1; test: Rotating disk reactor biofilm test in combination with tobramycin; format: cell-based; conditions: 48 hours biofilm; compound 110 approximately 100 μg/mL for 24 hours; tobramycin 100 μg/mL for two hours; polystyrene coupons
Method: In this example, compound 110 was tested for biofilm inhibition with Pseudomonas aeruginosa in combination with Tobramycin. Specifically, biofilm formation of P. aeruginosa was evaluated using a standardized biofilm method with a rotating disk reactor (RDR), which is also known as “ASTM Standard Method #E-2196-02.” The rotating disk reactor consisted of a one-liter glass beaker fitted with a drain spout. The bottom of the vessel contained a magnetically driven rotor with six 1.27 cm diameter coupons constructed from polystyrene. The rotor consisted of a star-head magnetic stir bar upon which a disk was affixed to hold the coupons. The vessel (with the stir bar) was placed on a stir plate and rotated to provide fluid shear. A nutrient solution (AB Trace Medium with 0.3 mM glucose, see Table 5 below for specific formulation) was added through a stopper in the top of the reactor at a flow rate of 5 mL/min. The reactor volume was approximately 180 mL. At a volume of 180 mL, the residence time of the reactors was 36 minutes. The reactors were operated at room temperature (c.a. 26° C.). In this example, two RDRs were operated in parallel with one receiving compound 110 and the other serving as an untreated control. […] The plates were incubated for 24 hours at 37° C. before colony forming units (CFU) were determined.

[4] = live CFU compared to negative control flow cell

Compound	MIC (μg/mL) - Pseudomonas aeruginosa (Pseudomonas aeruginosa [1]) [µg/mL]	Biofilm Inhibition- Pseudomonas aeruginosa (Pseudomonas aeruginosa [2]) [%]	also measured
C[C@@H]1[C@H]2C3=CC[C@@H]4[C@@]5(C)CC[C@H](OC(=O)/C=C\c6ccc(O)cc6)C(C)(C)[C@@H]5CC[C@@]4(C)[C@]3(C)CC[C@@]2(C(=O)O)CC[C@]1(C)O (relative stereo) [Compound 188, 3β-O-cis-p-coumaroyl-20β-hydroxy-12-ursen-28-oic acid]	>10	–	–
C[C@H]1[C@H](CO)C[C@@H](C(=O)O)C2CC[C@]3(C)C(=CCC4[C@@]5(C)CC[C@H](O)C(C)(C)C5CC[C@]43C)[C@@H]21 (some centres unmarked) [Compound 99]	>10	30	MIC (μg/mL) - Staphylococcus aureus (Staphylococcus aureus): >32 µg/mL
CC1(C)C[C@@H](C(=O)O)C2CCC3C(=CCC4C3(C)CCC3C4(C)C[C@@H](O)[C@H](O)C3(C)C)[C@@H]2C1 (some centres unmarked) [Compound 107]	>10	46	–
COc1cc(/C=C/C(=O)OC2C(O)CC3(C)C(CCC4(C)C3CC=C3C5C(C)C(C)CCC5(C(=O)O)CCC34C)C2(C)C)ccc1O (stereo not drawn) [Compound 116, 3α-O-trans-feruloyl-2α-hydroxy-12-ursen-28-oic acid]	>10	–	Flow Cell with Compound 116 (CFU), Average (P. aeruginosa; LB media with 0.2% glucose, applied approximately 4 hours after inoculum, average): 1.76E+06 CFU; Flow Cell with Compound 116 (CFU), single flow cell (P. aeruginosa; LB media with 0.2% glucose, applied approximately 4 hours after inoculum, individual values): 2.06E+06 CFU and 1.46E+06 CFU; Log Reduction (P. aeruginosa; [4]): 0.28; Percent Reduction (P. aeruginosa; [4]): 47%; Percent Reduction (P. aeruginosa; live CFU compared to negative control flow cell, listed as compound 116): ~47%
C[C@H]1[C@H](C)CC[C@]2(C(=O)O)CCC3C(=CCC4[C@@]3(C)CCC3C(C)(C)[C@@H](OC(=O)/C=C/c5ccc(O)cc5)[C@H](O)C[C@@]34C)[C@H]12 (some centres unmarked) [Compound 189]	>10	35	–
C[C@@H]1C[C@@H](C(=O)O)C2CC[C@]3(C)C(=CCC4[C@@]5(C)C[C@@H](O)[C@H](O)C(C)(C)C5CC[C@]43C)[C@@H]2[C@]1(C)O (some centres unmarked) [Compound 192]	>10	32	–
C[C@@H]1[C@H]2C3=CCC4[C@@]5(C)CC[C@H](O)C(C)(C)C5CC[C@@]4(C)[C@]3(C)CC[C@@]2(C(=O)O)CC[C@]1(C)O (some centres unmarked) [Compound 195]	>10	25	MIC (μg/mL) - Staphylococcus aureus (Staphylococcus aureus): >8 µg/mL
C[C@@H]1CC[C@]2(C(=O)O)CC[C@]3(C)C(=CCC4[C@@]5(C)C[C@@H](O)[C@H](O)C(C)(C)C5CC[C@]43C)[C@@H]2[C@]1(C)O (some centres unmarked) [Compound 203]	>10	43	–
CC1(C)CC[C@]2(C(=O)O)CC[C@]3(C)C(=CC[C@@H]4[C@@]5(C)CC[C@H](O)C(C)(C)[C@@H]5CC[C@]43C)[C@@H]2C1 [Compound 225]	–	–	MIC (μg/mL) - Escherichia coli (Escherichia coli): >10 µg/mL
NC[C@H]1O[C@H](O[C@H]2[C@H](O)[C@@H](O[C@H]3O[C@H](CO)[C@@H](O)[C@H](N)[C@H]3O)[C@H](N)C[C@@H]2N)[C@H](N)C[C@@H]1O [Tobramycin, reference compound]	–	–	CFU (in log 10) [3]: 6.1 CFU (in log 10)
